The test addresses T1, tryptophan synthase (TS) complex, TrpA:TrpB (Salmonella enterica, UniProt P0A2K1).
T1 sequence (P0A2K1 1-397): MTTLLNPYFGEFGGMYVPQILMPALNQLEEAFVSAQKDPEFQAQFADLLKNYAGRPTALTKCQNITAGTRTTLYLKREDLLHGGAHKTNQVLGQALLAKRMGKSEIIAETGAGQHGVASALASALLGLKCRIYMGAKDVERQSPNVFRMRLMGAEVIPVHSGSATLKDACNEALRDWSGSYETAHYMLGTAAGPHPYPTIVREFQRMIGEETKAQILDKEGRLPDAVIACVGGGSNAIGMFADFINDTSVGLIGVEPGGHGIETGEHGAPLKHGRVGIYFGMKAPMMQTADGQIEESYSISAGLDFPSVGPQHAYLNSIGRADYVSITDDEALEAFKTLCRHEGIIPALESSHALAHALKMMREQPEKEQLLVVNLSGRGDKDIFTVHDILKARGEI
T1 sequence (P00929 1-268 partner): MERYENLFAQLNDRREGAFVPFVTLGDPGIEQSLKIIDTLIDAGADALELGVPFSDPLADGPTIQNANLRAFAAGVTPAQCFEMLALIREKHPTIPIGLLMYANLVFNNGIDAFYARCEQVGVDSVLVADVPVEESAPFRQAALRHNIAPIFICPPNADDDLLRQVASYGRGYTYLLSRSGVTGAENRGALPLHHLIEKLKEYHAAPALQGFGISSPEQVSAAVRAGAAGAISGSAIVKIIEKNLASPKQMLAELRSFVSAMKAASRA
In words: coupled VioA/HRP assay of Trp formation, […] nm, global fit. The format is biochemical.
In turn, `O=C(NCCCCOP(=O)(O)O)c1ccc(/N=N\c2ccccc2)cc1` [4d, 4 d (Z isomer)] yielded a Ki above 4000 µM. In turn, `O=C(NCCCCOP(=O)(O)O)c1ccc(/N=N/c2ccccc2)cc1` [4d, (E)‐4‐(4‐(phenyldiazenyl)benzamido)butyl dihydrogen phosphate] registered a Ki of 640 ± 80 µM.

`O=C(NCCCCCOP(=O)(O)O)c1ccc(/N=N\c2ccccc2)cc1` [4e, 4 e (Z isomer)]: the Ki turned out to be 930 ± 420 µM. The value for `O=C(NCCCCCOP(=O)(O)O)c1ccc(/N=N/c2ccccc2)cc1` [4e, (E)‐5‐(4‐(phenyldiazenyl)benzamido)pentyl dihydrogen phosphate] was 180 ± 40 µM; that for `O=C(NCCCCCCOP(=O)(O)O)c1ccc(/N=N\c2ccccc2)cc1` [4f, 4 f (Z isomer)] was 100 ± 10 µM; that for `O=C(NCCCCCCOP(=O)(O)O)c1ccc(/N=N/c2ccccc2)cc1` [4f, (E)‐6‐(4‐(phenyldiazenyl)benzamido)hexyl dihydrogenphosphate] was 50 µM.

For orientation: Ki means the equilibrium dissociation constant of an inhibitor or competing ligand from its target. A higher Ki goes with a looser hold on the target.

The values are drawn from article PMC7898615 (Chemistry (Weinheim an Der Bergstrasse, Germany), 2020).
